The target of this assay is T1, KCNQ2/3 potassium ion channel (Homo sapiens, UniProt O43525+O43526).
T1 construct: expressed in transfected cells; host or cells: CHO cells (hKCNQ-CHO)
Briefly: KCNQ2/3 potassium ion channel activation assay (whole-cell patch clamp, hKCNQ-CHO cells). It counts as cell-based. As to conditions: read-out: Enhancment % (current enhancement multiple); for activation at 0.05 µM: test concentration 0.05 μM; for activation at 3 µM: test concentration 3 μM. As for the experimental part:
Example 64: KCNQ2/3 Potassium Ion Channel Activation Assay
hKCNQ-CHO cells were cultured at 37° C. in a humidified environment of 5% CO2.
• 2.1. Extracellular fluid (mM): NaCl 145, KCl 4, CaCl2 2, MgCl2 1, Glucose 10, HEPES 10. The pH value of the extracellular fluid was adjusted to 7.4 with NaOH, and the osmotic pressure was adjusted to about 295 mOsm. • 2.2. Intracellular fluid (mM (mmol/L)): KOH 31.25, KCl 120, EGTA 10, MgCl2 1.75, CaCl2 5.374, HEPES 10, Na-ATP 4. The pH value of the intracellular fluid was adjusted to 7.4 with HCl, and the osmotic pressure was adjusted to about 285 mOsm. • 2.3. The extracellular fluid should be prepared once a week, and the intracellular fluid should be stored at −20° C. after preparation.
The model positive reference compound Retigabine (RTG) was dissolved with 100% DMSO and configured as a 10 mM working solution. The test compounds were dissolved with 100% DMSO and configured as a 10 mM working solution. The final concentration of DMSO in the test solution should be less than 0.3%.
Whole-cell patch clamp was performed at room temperature. The electrical signals recorded with the EPC 10 USB amplifier (HEKA Elektronik, Germany) were filtered by a 3 kHz low-pass filter, and finally recorded in PatchMaster 2×90.5 software (HEKA Elektronik, Germany). At this step, the quality control standard was that the cell high-resistance sealing was greater than 500 MOhms, and the detection current was greater than 0.4 nA.
The recording electrodes were pulled out and polished with a vertical puller (NARISHIGE PC-10, Japan) using a borosilicate glass capillary (GC150tF-10, Harvard Apparatus Co., UK). At this step, the quality control standard was that the electrode resistance was between 2 MΩ and 5 MΩ.
During the recording process of the whole-cell patch clamp, a continuous perfusion system (BT100-2J, LongerPump, China) was used to continuously perfuse the extracellular fluid. The perfusion system was installed on the stage of an upright microscope (FN-S2N, Nikon, Japan), and the perfusion head was manually positioned under the microscope.
The voltage command for detecting the amplitude of hKCNQ current was as follows: the cell stepped from the clamping potential of −80 mV to −30 mV, and held for 1500 ms; and then the clamping voltage was lowered to −120 my and held for 500 ms; finally, the voltage returned to the clamping potential of −80 mV. The detection voltage command was repeated every 15,000 milliseconds, and the command was continuously executed during the compound test. The quality control standard for compound action stability was the current amplitude under 5 consecutive voltage commands, and the coefficient of variation of the current amplitude was <5%.
Data analysis was performed using PatchMaster 2×90.5 software (HEKA Elektronik, Germany) and Excel 2013 (Microsoft, USA) software. For each cell's patch clamp recording, the amplitude of the hKCNQ channel current (Itest) corresponding to the test compound concentration should be obtained. The enhanced channel current was obtained by subtracting the cell's original channel current (Icontrol) from Itest and dividing by Icontrol to obtain the current enhancement multiple. That is, the current enhancement multiple (Enhancment %)=(Itest −Icontrol)/Icontrol[…].
On the technique in general: In patch-clamp work, channel activity is measured electrically.

In patent US20240317689A1, “POTASSIUM CHANNEL MODULATOR, COMPOSITION AND APPLICATION” (NEUSHEN THERAPEUTICS (SHANGHAI) CO., LTD, priority 2021, published 2024) one finds activation data, which are given here for 24 compounds.

For `COc1ccc2c(c1)CCCN(c1cc(C)c(NC(=O)CC(C)(C)C)c(C)c1)C2` [Compound 001, N-(4-(7-methoxy-1,3,4,5-tetrahydro-2H-benzo[c]azepin-2-yl)-2,6-dimethylphenyl)-3,3-dimethylbutanamide], the activation at 0.05 µM lay within 50 to 100% and the activation at 3 µM was 50 to 100%.
Consider `CCOc1ccc2c(c1)CCCN(c1cc(C)c(NC(=O)CC(C)(C)C)c(C)c1)C2` [Compound 002, N-(4-(7-ethoxy-1,3,4,5-tetrahydro-2H-benzo[c]azepin-2-yl)-2,6-dimethylphenyl)-3,3-dimethylbutanamide], for which the activation at 0.05 µM was < 50% and the activation at 3 µM was in the range of 50 to 100%.
On the same counts, the results for `Cc1cc(N2CCCc3cc(OC(F)F)ccc3C2)cc(C)c1NC(=O)CC(C)(C)C` [Compound 005, N-(4-(7-(difluoromethoxy)-1,3,4,5-tetrahydro-2H-benzo[c]azepin-2-yl)-2,6-dimethylphenyl)-3,3-dimethylbutanamide] are < 50% and > 100%.
Regarding `Cc1cc(N2CCCc3cc(OC(F)(F)F)ccc3C2)cc(C)c1NC(=O)CC(C)(C)C` [Compound 006, N-(2,6-dimethyl-4-(7-(trifluoromethoxy)-1,3,4,5-tetrahydro-2H-benzo[c]azepin-2-yl)phenyl)-3,3-dimethylbutanamide], the activation at 3 µM was > 100%.
Same read-out and setting: for `Cc1cc(N2CCCc3cc(OCC(F)(F)F)ccc3C2)cc(C)c1NC(=O)CC(C)(C)C` [Compound 007, N-(2,6-dimethyl-4-(7-(2,2,2-trifluoroethoxy)-1,3,4,5-tetrahydro-2H-benzo[c]azepin-2-yl)phenyl)-3,3-dimethylbutanamide] the value was > 100%; for `Cc1cc(N2CCCc3cc(OC4CC4)ccc3C2)cc(C)c1NC(=O)CC(C)(C)C` [Compound 009, N-(4-(7-cyclopropoxy-1,3,4,5-tetrahydro-2H-benzo[c]azepin-2-yl)-2,6-dimethylphenyl)-3,3-dimethylbutanamide], > 100%.
With `Cc1cc(N2CCCc3cc(OC4CCC4)ccc3C2)cc(C)c1NC(=O)CC(C)(C)C` [Compound 010, N-(4-(7-cyclobutoxy-1,3,4,5-tetrahydro-2H-benzo[c]azepin-2-yl)-2,6-dimethylphenyl)-3,3-dimethylbutanamide], the activation at 0.05 µM is > 100% and the activation at 3 µM was > 100%.
On to `Cc1cc(N2CCCc3cc(OC4CCCCC4)ccc3C2)cc(C)c1NC(=O)CC(C)(C)C` [Compound 012, N-(4-(7-(cyclohexyloxy)-1,3,4,5-tetrahydro-2H-benzo[c]azepin-2-yl)-2,6-dimethylphenyl)-3,3-dimethylbutanamide], for which the activation at 3 µM is > 100%.
In the case of `Cc1cc(N2CCCc3cc(OC4COC4)ccc3C2)cc(C)c1NC(=O)CC(C)(C)C` [Compound 013, N-(2,6-dimethyl-4-(7-(oxetan-3-yloxy)-1,3,4,5-tetrahydro-2H-benzo[c]azepin-2-yl)phenyl)-3,3-dimethylbutanamide], the activation at 3 µM was > 100%.
Take `CSc1ccc2c(c1)CCCN(c1cc(C)c(NC(=O)CC(C)(C)C)c(C)c1)C2` [Compound 014, N-(2,6-dimethyl-4-(7-(methylthio)-1,3,4,5-tetrahydro-2H-benzo[c]azepin-2-yl)phenyl)-3,3-dimethylbutanamide]: the activation at 0.05 µM was < 50% and the activation at 3 µM was 50 to 100%.
With `Cc1cc(N2CCCc3cc(S(C)(=O)=O)ccc3C2)cc(C)c1NC(=O)CC(C)(C)C` [Compound 015, N-(2,6-dimethyl-4-(7-(methylsulfonyl)-1,3,4,5-tetrahydro-2H-benzo[c]azepin-2-yl)phenyl)-3,3-dimethylbutanamide], the activation at 3 µM is > 100%.
Turning to `Cc1cc(N2CCC(C)(C)c3ccccc3C2)cc(C)c1NC(=O)CC(C)(C)C` [Compound 017, N-(4-(5,5-dimethyl-1,3,4,5-tetrahydro-2H-benzo[c]azepin-2-yl)-2,6-dimethylphenyl)-3,3-dimethylbutanamide], the activation at 0.05 µM is < 50% and the activation at 3 µM is 50 to 100%.
Take `Cc1cc(N2CCC3(CC3)c3cc(F)ccc3C2)cc(C)c1NC(=O)CC(C)(C)C` [Compound 022, N-(4-(7-fluoro-3,4-dihydrospiro[benzo[c]azepine-5,1′-cyclopropan]-2(1H)-yl)-2,6-dimethylphenyl)-3,3-dimethylbutanamide]: the activation at 3 µM is 50 to 100%.
Still for that read-out and setting: the same measure for `Cc1cc(N2CCNc3cc(F)ccc3C2)cc(C)c1NC(=O)CC(C)(C)C` [Compound 023, N-(4-(8-fluoro-1,2,3,5-tetrahydro-4H-benzo[e][1,4]diazepin-4-yl)-2,6-dimethylphenyl)-3,3-dimethylbutanamide]: > 100%; for `Cc1cc(N2CCN(C)c3cc(F)ccc3C2)cc(C)c1NC(=O)CC(C)(C)C` [Compound 024, N-(4-(8-fluoro-1-methyl-1,2,3,5-tetrahydro-4H-benzo[e][1,4]diazepin-4-yl)-2,6-dimethylphenyl)-3,3-dimethylbutanamide]: 50 to 100%.
In the case of `Cc1cc(N2CCSc3cc(F)ccc3C2)cc(C)c1NC(=O)CC(C)(C)C` [Compound 025, N-(4-(8-fluoro-2,3-dihydrobenzo[f][1,4]thiazepin-4(5H)-yl)-2,6-dimethylphenyl)-3,3-dimethylbutanamide], the activation at 3 µM is > 100%.
As for `Cc1cc(N2CCS(=O)(=O)c3cc(F)ccc3C2)cc(C)c1NC(=O)CC(C)(C)C` [Compound 026, N-(4-(8-fluoro-1,1-dioxido-2,3-dihydrobenzo[f][1,4]thiazepin-4(5H)-yl)-2,6-dimethylphenyl)-3,3-dimethylbutanamide], the activation at 3 µM is > 100%.
Turning to `Cc1cc(N2CC=Cc3cc(F)ccc3C2)cc(C)c1NC(=O)CC(C)(C)C` [Compound 027, N-(4-(7-fluoro-1,3-dihydro-2H-benzo[c]azepin-2-yl)-2,6-dimethylphenyl)-3,3-dimethylbutanamide], the activation at 0.05 µM was < 50% and the activation at 3 µM was > 100%.
The like results for `CC1=CCN(c2cc(C)c(NC(=O)CC(C)(C)C)c(C)c2)Cc2ccc(F)cc21` [Compound 028, N-(4-(7-fluoro-5-methyl-1,3-dihydro-2H-benzo[c]azepin-2-yl)-2,6-dimethylphenyl)-3,3-dimethylbutanamide] were, in that order, < 50% and 50 to 100%.
In the case of `Cc1c(NC(=O)CC(C)(C)C)ccc(N2CCCc3cc(F)ccc3C2)c1F` [Compound 029, N-(3-fluoro-4-(7-fluoro-1,3,4,5-tetrahydro-2H-benzo[c]azepin-2-yl)-2-methylphenyl)-3,3-dimethylbutanamide], the activation at 3 µM fell in the range of 50 to 100%.
`Cc1cc(N2CCCc3cc(F)ccc3C2)c(C)c(C)c1NC(=O)CC(C)(C)C` [Compound 030, N-(4-(7-fluoro-1,3,4,5-tetrahydro-2H-benzo[c]azepin-2-yl)-2,3,6-trimethylphenyl)-3,3-dimethylbutanamide]: the activation at 3 µM is 50 to 100%.
The same measure, in the same setting: the same measure for `Cc1cc(N2CCCc3cc(F)ccc3C2)c(Cl)c(C)c1NC(=O)CC(C)(C)C` [Compound 031, N-(3-chloro-4-(7-fluoro-1,3,4,5-tetrahydro-2H-benzo[c]azepin-2-yl)-2,6-dimethylphenyl)-3,3-dimethylbutanamide]: > 100%; for `Cc1cc(N2CCCc3cc(OC(C)C(F)(F)F)c(F)cc3C2)cc(C)c1NC(=O)CC(C)(C)C` (centres unmarked) [Compound 034, N-(4-(8-fluoro-7-((1,1,1-trifluoropropan-2-yl)oxy)-1,3,4,5-tetrahydro-2H-benzo[c]azepin-2-yl)-2,6-dimethylphenyl)-3,3-dimethylbutanamide]: > 100%; for `Cc1cc(N2CCCc3cc(O[C@@H](C)C(F)(F)F)c(F)cc3C2)cc(C)c1NC(=O)CC(C)(C)C` [Compound 036, (S)—N-(4-(8-fluoro-7-((1,1,1-trifluoropropan-2-yl)oxy)-1,3,4,5-tetrahydro-2H-benzo[c]azepin-2-yl)-2,6-dimethylphenyl)-3,3-dimethylbutanamide]: > 100%.
